Results as given in ChEMBL document CHEMBL1152614, “Design, synthesis and evaluation of monovalent ligands for the asialoglycoprotein receptor (ASGP-R)” (Bioorg Med Chem, 2009).

Target: T1, Asialoglycoprotein receptor 1 (Homo sapiens) (UniProt P07306)
T1 sequence (whole entry): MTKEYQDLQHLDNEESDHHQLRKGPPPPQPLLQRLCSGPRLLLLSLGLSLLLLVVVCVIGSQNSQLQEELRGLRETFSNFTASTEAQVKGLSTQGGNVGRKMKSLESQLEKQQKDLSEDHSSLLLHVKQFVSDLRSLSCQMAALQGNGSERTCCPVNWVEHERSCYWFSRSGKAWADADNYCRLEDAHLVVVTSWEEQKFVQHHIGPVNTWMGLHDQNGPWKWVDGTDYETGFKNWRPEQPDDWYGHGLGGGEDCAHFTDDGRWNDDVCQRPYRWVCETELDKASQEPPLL
Assay: Inhibition of D-GalNAc-PAA binding to human recombinant ASGPR1 carbohydrate recognition domain expressed in Escherichia coli AD494 by competitive solid-phase binding assay relative to D-GalNAc

| Ratio IC50 | Compound |
| --- | --- |
| 1.1 | OC[C@H]1OC[C@H](n2cc(COc3ccccc3)nn2)[C@@H](O)[C@H]1O |
| 8.7 | O=C(O)c1ccc(OCc2cn([C@H]3CO[C@H](CO)[C@H](O)[C@@H]3O)nn2)cc1 |
| 0.8 | O=[N+]([O-])c1ccc(OCc2cn([C@H]3CO[C@H](CO)[C@H](O)[C@@H]3O)nn2)cc1 |
| 1 | CC(=O)N[C@H]1C(O)O[C@H](CO)[C@H](O)[C@@H]1O (some centres not stated) |
| Insoluble | O=S(=O)(Nc1ccc(OCc2cn([C@H]3CO[C@H](CO)[C@H](O)[C@@H]3O)nn2)cc1)C(F)(F)F |
| 0.9 | CN1CCN(c2ccc(OCc3cn([C@H]4CO[C@H](CO)[C@H](O)[C@@H]4O)nn3)cc2)CC1 |
| 0.5 | N#Cc1ccc(OCc2cn([C@H]3CO[C@H](CO)[C@H](O)[C@@H]3O)nn2)cc1 |
| 1.4 | OC[C@H]1OC[C@H](n2cc(COc3c(F)c(F)c(F)c(F)c3F)nn2)[C@@H](O)[C@H]1O |

| Compound | Ratio IC50 |
| --- | --- |
| [N-]=[N+]=N[C@H]1CO[C@H](CO)[C@H](O)[C@@H]1O | 13.7 |

Target: not listed separately
Assay: Inhibition of [125I]asialoorosomucoid binding to rabbit hepatic ASGPR1
Set-up: species or system Oryctolagus cuniculus

| IC50 [mM] | Compound |
| --- | --- |
| 60 | OC[C@H]1O[C@@H](O)[C@H](O)[C@@H](O)[C@@H]1O [beta-D-Glucose] |
| 1.7 | OC[C@H]1O[C@@H](O)[C@H](O)[C@@H](O)[C@H]1O [b-D-GALACTOSE] |

Target: T1, Asialoglycoprotein receptor 1 (Homo sapiens)
Assay: Inhibition of D-GalNAc binding to human recombinant ASGPR1 carbohydrate recognition domain expressed in Escherichia coli AD494 by competitive NMR binding assay relative to D-GalNAc

| relative binding affinity (RBA) | Compound |
| --- | --- |
| 1.9 | N#Cc1ccc(OCc2cn([C@H]3CO[C@H](CO)[C@H](O)[C@@H]3O)nn2)cc1 |
